Key:
[1] = tested on: Green Peach Aphid (Myzus persicae, MYZUPE); test: Green Peach Aphid (GPA) foliar spray bioassay on cabbage seedlings; assay type: in vivo; conditions: for Mean LC50 PPM: cabbage seedlings, live aphids counted three days after treatment, Abbott-corrected % control; for % (percent increase in the Mean LC50 required compared to F1): relative to F1
Description: (§1) F1, CE1, CE2, CE3, and CE4 (2 mg each) were each dissolved in 2 mL of acetone/methanol (1:1) solvent, forming stock solutions of 1000 ppm for each test molecule. The stock solutions were diluted 5× with 0.025% Tween® 20 in water to obtain test solutions at 200 ppm for each test molecule. Subsequent 4× dilutions, in water containing 0.025% Tween® 20 and 10% acetone/methanol (1:1), were used to generate the desired concentrations for dose responses. A minimum of 5 concentrations of each test molecule were used for each assay.
Test solutions of Formula One and the Comparative Examples, prepared as described above, were tested against GPA using the following procedure.
Cabbage seedlings grown in 3-inch pots, with 2-3 small (3-5 cm) true leaves, were used as test substrate. The seedlings were infested with 20-50 GPA (wingless adult and nymph stages) one day prior to chemical application. Four pots with individual seedlings were used for each treatment. A hand—held aspirator—type sprayer was used for spraying a solution to both sides of […] leaves until runoff. Reference plants (solvent check) were sprayed with the diluent only (0.025% Tween® 20 and 10% acetone/methanol (1:1) in water). Treated plants were held in a holding room for three days at approximately 25° C. and ambient relative humidity (RH) prior to grading. Evaluation was conducted by counting the number of live aphids per plant under a microscope three days after treatment. Percent control was measured using Abbott's correction formula (W. S. Abbott, “A Method of Computing the Effectiveness of an Insecticide” J. Econ. Entomol. 18 (1925), pp.265-267) as follows:
(§2) Corrected % Control=100*(X−Y)/X
where X=No. of live aphids on solvent check plants and Y=No. of live aphids on treated plants. Bioassay 2: Sweetpotato Whitefly (Bemisia tabaci, BEMITA) (“SPW”).

[2] = tested on: Sweetpotato Whitefly (Bemisia tabaci, BEMITA); test: Sweetpotato Whitefly (SPW) foliar spray bioassay on cotton seedlings; assay type: in vivo; conditions: for Mean LC50 PPM: cotton seedlings sprayed at crawler emergence, 2-3 instar nymphs counted 7-9 days after treatment, Abbott-corrected % control; for % (percent increase in the Mean LC50 required compared to F1): relative to F1
Description: as §1
Test solutions of Formula One and the Comparative Examples, prepared as described above, were tested against SPW using the following procedure.
Cotton seedlings grown in 3-inch pots, pruned so that only one true leaf remained, were used as test substrate. Adult B. tabaci were allowed to colonize these plants and lay eggs for 24 hours after which all adults were removed from the plants using compressed air. Plants were monitored for egg development and, when crawler emergence was underway (>25% emergence based on visual examination using a microscope), the plants were sprayed using the test solutions and methods described above for green peach aphids (GPA). Treated plants were held in a holding room at approximately 25° C. and ambient relative humidity (RH) prior to grading. Evaluation was conducted by counting the number of developed 2-3 instar nymphs per plant under a microscope 7-9 days after treatment. Percent control was measured using Abbott's correction formula (W. S. Abbott, “A Method of Computing the Effectiveness of an Insecticide” J. Econ. Entomol. 18 (1925), pp.265-267) as follows:
as §2
where X=No. of live nymphs on solvent check plants and Y=No. of live nymphs on treated plants.

Compound | Mean LC50 PPM [1] [PPM] | % (percent increase in the Mean LC50 required compared to F1) [1] [%] | Mean LC50 PPM [2] [PPM] | % (percent increase in the Mean LC50 required compared to F1) [2] [%]
CC(C(=O)N(C)c1cn(-c2cccnc2)nc1Cl)S(C)(=O)=O (stereo not drawn) [CE1, N-(3-chloro-1-(pyridin-3-yl)-1H-pyrazol-4-yl)-N-methyl-2-(methylsulfonyl)propanamide] | 0.29 | 314 | 5.61 | 15
CN(C(=O)CS(C)(=O)=O)c1cn(-c2cccnc2)nc1Cl [CE2, N-(3-chloro-1-(pyridin-3-yl)-1H-pyrazol-4-yl)-N-methyl-2-(methylsulfonyl)acetamide] | 0.52 | 643 | 21.01 | 331
CS(=O)(=O)CC(=O)Nc1cn(-c2cccnc2)nc1Cl [CE3, N-(3-chloro-1-(pyridin-3-yl)-1H-pyrazol-4-yl)-2-(methylsulfonyl)acetamide] | 0.05 | −29 | 25.35 | 421
CC(C)(C(=O)Nc1cn(-c2cccnc2)nc1Cl)S(C)(=O)=O [CE4, N-(3-chloro-1-(pyridin-3-yl)-1H-pyrazol-4-yl)-2-methyl-2-(methylsulfonyl)propanamide] | 2.17 | 3000 | 9.72 | 100
CC(C(=O)Nc1cn(-c2cccnc2)nc1Cl)S(C)(=O)=O (stereo not drawn) [Molecule F1, N-(3-chloro-1-(pyridin-3-yl)-1H-pyrazol-4-yl)-2-(methylsulfonyl)propanamide] | 0.07 |  | 4.87 | 

From patent publication US20230040279A1, “COMPOSITIONS HAVING PESTICIDAL UTILITY AND PROCESSES RELATED THERETO” (CORTEVA AGRISCIENCE LLC, priority 2019, published 2023)
